Reference: patent publication US20170267679A1, “[…] FUSED PYRIMIDINE COMPOUNDS AS INHIBITORS OF p97 COMPLEX” (Cleave Biosciences, Inc., priority 2016, published 2017)

Experiments:
A549 cells = test: A549 CellTitre Glo viability assay; format: cell-based; settings: Homo sapiens, 72 hr incubation
Description: Anti-tumor effects are monitored in cultured cancer cells after several days of compound treatment. The cell titer glo assay (Promega) measures the amount of ATP present as a proxy for cellular viability. Cellular counting is done using high-content microscopy followed by image analysis. A hanging drop 3D-culture system (3D Biomatrix) is used followed by cell titer glo to measure growth in a tumor-like environment.
The cellular assay provides information about the anti-neoplastic activity of the compounds of the invention. The compounds are tested against cultured cancer cells to determine whether or not the compounds of the invention are capable of intersecting with cancer cells to minimize or eliminate such cells. The assay involves establishing colonies of such cells and then treating them with the test compound under specified conditions and analysis regima to determine results.
(§1) Plate 25 μL of A549 cells in every well of 384-well plate using multidrop. • Two (2) black plates for IF at 2500 cells/well • Let plate sit at room temp for 10-15 minutes prior to putting in incubator to allow cells to stick in middle of plate. • One (1) white plate for viability at 500 cells/well.
(§2) Treat Cells: • Serial dilute compounds with a 10 point 2-fold serial dilution in DMSO to make 250× stock compound solution • Dilute compounds 1:125 in cell culture media to make a 2× solution Add 25 μL of dilution compounds to cell plates in well duplicates
Put cells back in incubator (6 hr incubation for black plates, 72 hr incubation for white plates).
Thaw an aliquot of frozen cell titer glo (Promega G7572) at room temperature.
Add 45 mL of NaCl/PBS solution to 5 ml of cell titer glo (10×).
Remove white plates from incubator, leave at room temp for 30 minutes.
Add 25 μL of diluted cell titer glo to each well.
Shake plate for >1 minute.
Incubate plate for >5 minutes to stabilize luminescence.
Read luminescence on plate reader

p97 = p97 (Homo sapiens, UniProt P55072); test: p97 ADP Glo ATPase biochemical assay; settings: 20 nM p97, 20 uM ATP, 37 deg C, 15 min; read-out: 97 ADP Glo Assay: IC50
Experimental: The ATPase assay is performed according the following protocol: Purified enzyme (20 nM p97), substrate (20 μM ATP) and a dose titration of compounds are mixed in buffer (50 mM TRIS pH 7.5, 20 mM MgCl2, 0.02% TX-100, 1 mM DTT, 0.2% (v/v) glycerol) and incubated at 37° C. for 15 minutes. The reaction is terminated and the level of product generated is measured using the ADP Glo Assay Kit (Promega, Madison Wis.). Plotting product generated versus compound concentration and using a four-parameter fit model generates an IC50 value for each compounds.
The p97 assay is an initial screening assay used to determine inhibitory activity of the compounds of the invention against the p97 complex. As discussed above, inhibition of activity of the p97 proteosome complex can enable apoptosis and cause elimination of neoplastic cells (cancer cells). The method follows that of Christianson in Nat. Cell Biol., (2011) 14:93.
Assay Buffer is a mixture of 50 mM TRIS pH 7.5, 20 mM MgCl2, 0.02% TX-100, 1 mM DTT and 0.2% (v/v) Glycerol. The well plate is Platetype: Corning 3674, 384 w plate. The identification kit is an ADP glo kit (Promega): stop buffer, detection reagent.
Serial dilute compound in DMSO in a 1:3.33-fold 10 point serial dilution.
in each well of 384 w plate add the following reagents:
0.5 μL compound serial diluted in DMSO (Final Conc. 10%)
2 μL ATP (Final Conc.=20 uM, diluted in assay buffer)
2.5 μL p97 (Final Conc.=20 nM, diluted in assay buffer)
Incubate at 37 deg C. for 15 min.
Add 5μ of stop buffer, incubate at RT for 40 min.
Add 10 μL of detection reagent, incubate at RT for 30 min.
Read luminescence on Envision plate reader.
Normalize luminescence data using no enzyme (full inhibition) and no compound (no inhibition) controls. Plot normalized luminescence data against log-transformed concentration values and fit to a sigmoidal curve to determine IC50 values (done in Collaborative Drug Discovery software).

K48-Ub in A549 cells = test: A549 K48 cell intensity (K48 poly-ubiquitin immunofluorescence); format: cell-based; settings: Homo sapiens, 6 hr incubation
Experimental: Image-analysis is used to generate quantitative data from these assays that can be fit to a four-parameter sigmoid curve to derive IC50 values. Substrates of the ubiquitin-proteasome system, such as p53, are monitored after tumor cell lines are incubated with compounds for several hours. Accumulation of these proteins indicates an inhibition of proteasome-mediated degradation. Accumulation of lysine-48 chain linkage of poly-ubiquitin is also monitored by immunofluorescence as an indicator of ubiquitin-proteasome system inhibition. Both LC3 and SQSTM1 are mediators of autophagy. The localization and amounts of these proteins are monitored by immunofluorescence and report on the activity and inhibition of autophagy in response to p97 inhibition.
as §1
as §2, with “duplicates Put cells back in incubator (6 hr incubation for black plates, 72 hr incubation for white plates).” for “duplicates”
Incubate cells in black plates with compound at 37 deg C. for 6 hrs. add 15 μL of 16% Paraformaldehyde (PFA) directly into media of each well, • incubate at room temp for 5 min, flick plate and wash in 50 µL of PBS block in 50 μL of Blocking Buffer for 30 minutes (can go up to several hours) • Blocking buffer: 1×PBS, 1% BSA, 0.3% Triton-X100, Hoechst (1:10,000) incubate in 25 μL of primary antibody in blocking buffer at 4 deg C. over night […]
Secondary Antibodies: • AlexaFluor488 Goat anti-Rabbit 1:2,000 (Life Tech A11008) • AlexaFluor555 Goat anti-Mouse 1:2,000 (Life Tech A21422) wash black plates 3× in 50 μL PBS (˜5 min each) • incubate in 25 μL of secondary antibody (1:2,000) in blocking buffer for 1-2 hrs at room temp (alexafluor488-anti-Rabbit/alexafluor555-anti-Mouse) Image plates in high content microscope with 405 nm, 488 nm and 555 nm filters Data Analysis: • Nuclear counts and cellular intensities of each markers are measured using Hoechst as a nuclear marker with an automated image analysis protocol using Matlab software (Math Works)

Caco-2 cell monolayer = settings: pH 7.4, range over 12 inter-day experiments

Sequence of p97 (P55072 whole entry): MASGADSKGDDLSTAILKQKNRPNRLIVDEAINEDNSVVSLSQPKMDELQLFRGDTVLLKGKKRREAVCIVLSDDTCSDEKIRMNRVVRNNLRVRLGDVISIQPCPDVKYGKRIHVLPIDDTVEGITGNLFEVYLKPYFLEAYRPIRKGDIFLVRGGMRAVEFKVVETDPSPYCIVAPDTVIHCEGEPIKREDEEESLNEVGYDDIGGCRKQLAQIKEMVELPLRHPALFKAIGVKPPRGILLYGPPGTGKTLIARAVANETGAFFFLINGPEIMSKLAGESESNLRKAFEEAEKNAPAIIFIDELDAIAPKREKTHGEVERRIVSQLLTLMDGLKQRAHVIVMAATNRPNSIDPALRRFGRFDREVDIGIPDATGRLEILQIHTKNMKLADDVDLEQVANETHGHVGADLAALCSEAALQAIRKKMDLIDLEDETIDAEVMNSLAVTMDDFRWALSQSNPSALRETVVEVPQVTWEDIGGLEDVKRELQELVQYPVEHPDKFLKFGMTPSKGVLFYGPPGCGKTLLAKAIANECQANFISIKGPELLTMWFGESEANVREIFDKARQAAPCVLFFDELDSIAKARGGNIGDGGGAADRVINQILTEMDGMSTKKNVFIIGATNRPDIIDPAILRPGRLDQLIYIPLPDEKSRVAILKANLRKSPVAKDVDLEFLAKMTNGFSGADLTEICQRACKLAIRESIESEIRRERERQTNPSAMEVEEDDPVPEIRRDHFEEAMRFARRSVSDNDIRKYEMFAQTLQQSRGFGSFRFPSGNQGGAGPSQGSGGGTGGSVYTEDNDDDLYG

IC50 (A549 cells) [nM] | IC50 (p97) [nM] | IC50 (K48-Ub in A549 cells) [nM] | Peff in pH 7.4 Caco-2, A B, Range (Caco-2 cell monolayer; A to B) | Peff in pH 7.4 Caco-2, B A, Range (Caco-2 cell monolayer; B to A) | Compound
1340 | 16 | 736 | – | – | Cc1cc2c(C(N)=O)cccc2n1-c1nc(NCc2ccccc2)c2c(n1)C1CCCCN1CC2 (centres unmarked) [Compound 001, 1-(4-(benzylamino)-6,8,9,10,11,11a-hexahydro-5H-pyrimido[4,5-a]quinolizin-2-yl)-2-methyl-1H-indole-4-carboxamide]
2690 | 15 | 6620 | – | – | Cc1cc2c(C(N)=O)cccc2n1-c1nc(NCc2ccccc2)c2c(n1)C1CCCN1CC2 (centres unmarked) [Compound 002, 1-(4-(benzylamino)-5,6,8,9,10,10a-hexahydropyrimido[5,4-g]indolizin-2-yl)-2-methyl-1H-indole-4-carboxamide]
2340 | 25 | 642 | – | – | Cc1cc2c(C(N)=O)cccc2n1-c1nc2c(c(NCc3ccccc3)n1)CN1CCCCC1C2 (centres unmarked) [Compound 003, 1-(4-(benzylamino)-7,8,9,10,10a,11-hexahydro-5H-pyrimido[4,5-b]quinolizin-2-yl)-2-methyl-1H-indole-4-carboxamide]
1120 | 19 | 273 | – | – | Cc1cc2c(C(N)=O)cccc2n1-c1nc2c(c(NCc3ccccc3)n1)CN1CCCC1C2 (centres unmarked) [Compound 004, 1-[4-(Benzylamino)-5,7,8,9,9a,10-hexahydropyrimido[5,4-f]indolizin-2-yl]-2-methyl-indole-4-carboxamide]
– | – | – | 18.50-36.80 x E−6 cm/sec | 16.30-31.40 x E−6 cm/sec | CC(C)NCC(O)COc1cccc2ccccc12 (centres unmarked) [Propranolol]
